Test results from ChEMBL document CHEMBL1914411, “Synthesis of lipophilic dimeric C-7/C-7-linked ciprofloxacin and C-6/C-6-linked levofloxacin derivatives. Versatile in vitro biological evaluations of monomeric and dimeric fluoroquinolone derivatives as potential antitumor, antibacterial or antimycobacterial agents” (Eur J Med Chem, 2011).
≈ marks a conversion by molar mass, not a printed value. Calls of active or inactive are those of the source. The rule behind the calls is not given here.

Legend:
Pseudomonas aeruginosa = assay: Antimicrobial activity against Pseudomonas aeruginosa CIP 82.118 after 18 to 24 hrs by broth microdilution method; assay type: functional
Staphylococcus aureus [1] = assay: Antimicrobial activity against methicillin-resistant Staphylococcus aureus ATCC 33592 after 18 to 24 hrs by broth microdilution method; assay type: functional
Enterococcus hirae = assay: Antimicrobial activity against Enterococcus hirae CIP 5855 after 18 to 24 hrs by broth microdilution method; assay type: functional
Staphylococcus aureus [2] = assay: Antimicrobial activity against Staphylococcus aureus CIP 4.83 after 18 to 24 hrs by broth microdilution method; assay type: functional
Escherichia coli = assay: Antimicrobial activity against Escherichia coli CIP 53126 after 18 to 24 hrs by broth microdilution method; assay type: functional
[3] = system: Mycobacterium tuberculosis; assay: Antimycobacterial activity against Mycobacterium tuberculosis H37Rv assessed as growth inhibition at 0.1 uM after 6 days by MTT colorimetric microassay; assay type: functional, organism-based
Staphylococcus aureus [4] = assay: Antimicrobial activity against methicillin-resistant Staphylococcus aureus ATCC 33591 after 18 to 24 hrs by broth microdilution method; assay type: functional
Staphylococcus aureus [5] = assay: Antimicrobial activity against multidrug-resistant Staphylococcus aureus isolate 1 after 18 to 24 hrs by broth microdilution method; assay type: functional
Staphylococcus aureus [6] = assay: Antimicrobial activity against multidrug-resistant Staphylococcus aureus isolate 2 after 18 to 24 hrs by broth microdilution method; assay type: functional

Compound | MBC (Pseudomonas aeruginosa) [µM] | MIC (Pseudomonas aeruginosa) [µM] | MBC (Staphylococcus aureus [1]) [µM] | MIC (Staphylococcus aureus [1]) [µM] | MBC (Enterococcus hirae) [µM] | MIC (Enterococcus hirae) [µM] | MBC (Staphylococcus aureus [2]) [µM] | MIC (Staphylococcus aureus [2]) [µM] | MBC (Escherichia coli) [µM] | MIC (Escherichia coli) [µM] | growth inhibition (GI) [3] | MBC (Staphylococcus aureus [4]) [µM] | MIC (Staphylococcus aureus [4]) [µM] | MBC (Staphylococcus aureus [5]) [µM] | MIC (Staphylococcus aureus [5]) [µM] | MBC (Staphylococcus aureus [6]) [µM] | MIC (Staphylococcus aureus [6]) [µM]
O=C(O)c1cn(C2CC2)c2cc(N3CCN(C(=O)CCCCCCCCCCC(=O)N4CCN(c5cc6c(cc5F)c(=O)c(C(=O)O)cn6C5CC5)CC4)CC3)c(F)cc2c1=O | 250 (≈ 214 µg/mL) | 62.5 (≈ 53.6 µg/mL) | 1.9 (≈ 1.63 µg/mL) | 0.12 (≈ 0.103 µg/mL) | 500 (≈ 428 µg/mL) | 125 (≈ 107 µg/mL) | ≤ 0.97 | ≤ 0.12 | 62.5 (≈ 53.6 µg/mL) | 62.5 (≈ 53.6 µg/mL) | inactive | 3.9 (≈ 3.34 µg/mL) | 0.48 (≈ 0.411 µg/mL) | 500 (≈ 428 µg/mL) | 125 (≈ 107 µg/mL) | 500 (≈ 428 µg/mL) | 125 (≈ 107 µg/mL)
CC(C)(C)C(=O)N1CCN(c2cc3c(cc2F)c(=O)c(C(=O)O)cn3C2CC2)CC1 | 250 (≈ 104 µg/mL) | 62.5 (≈ 26 µg/mL) | 0.48 (≈ 0.199 µg/mL) | 0.24 (≈ 0.0997 µg/mL) | 7.8 (≈ 3.24 µg/mL) | 7.8 (≈ 3.24 µg/mL) | ≤ 0.97 | ≤ 0.48 | 31.2 (≈ 13 µg/mL) | 15.6 (≈ 6.48 µg/mL) | inactive | 0.48 (≈ 0.199 µg/mL) | 0.48 (≈ 0.199 µg/mL) | 500 (≈ 208 µg/mL) | 31.2 (≈ 13 µg/mL) | 31.2 (≈ 13 µg/mL) | 31.2 (≈ 13 µg/mL)
CCCC(=O)N1CCN(c2cc3c(cc2F)c(=O)c(C(=O)O)cn3C2CC2)CC1 | 250 (≈ 100 µg/mL) | 62.5 (≈ 25.1 µg/mL) | 0.48 (≈ 0.193 µg/mL) | 0.24 (≈ 0.0963 µg/mL) | 7.8 (≈ 3.13 µg/mL) | 7.8 (≈ 3.13 µg/mL) | ≤ 0.48 | ≤ 0.48 | 7.8 (≈ 3.13 µg/mL) | 7.8 (≈ 3.13 µg/mL) | inactive | 0.48 (≈ 0.193 µg/mL) | 0.48 (≈ 0.193 µg/mL) | 62.5 (≈ 25.1 µg/mL) | 31.2 (≈ 12.5 µg/mL) | 62.5 (≈ 25.1 µg/mL) | 31.2 (≈ 12.5 µg/mL)
CCCCCCCCCCCCOC(=O)N1CCN(c2cc3c(cc2F)c(=O)c(C(=O)O)cn3C2CC2)CC1 | 125 (≈ 68 µg/mL) | 125 (≈ 68 µg/mL) |  |  | 500 (≈ 272 µg/mL) | 62.5 (≈ 34 µg/mL) | 125 (≈ 68 µg/mL) | 125 (≈ 68 µg/mL) | 250 (≈ 136 µg/mL) | 125 (≈ 68 µg/mL) | inactive |  |  |  |  |  | 
O=C(O)c1cn(C2CC2)c2cc(N3CCN(C(=O)CO)CC3)c(F)cc2c1=O | 250 (≈ 97.3 µg/mL) | 15.6 (≈ 6.07 µg/mL) | 1.9 (≈ 0.74 µg/mL) | 0.24 (≈ 0.0935 µg/mL) | 7.8 (≈ 3.04 µg/mL) | 7.8 (≈ 3.04 µg/mL) | 1.9 (≈ 0.74 µg/mL) | ≤ 0.97 | 1.9 (≈ 0.74 µg/mL) | ≤ 0.97 | inactive | 1.9 (≈ 0.74 µg/mL) | 0.97 (≈ 0.378 µg/mL) | > 500 | 125 (≈ 48.7 µg/mL) | 62.5 (≈ 24.3 µg/mL) | 62.5 (≈ 24.3 µg/mL)
O=C(O)c1cn(C2CC2)c2cc(N3CCN(C(=O)CCCCCCCCCCCCCCC(=O)N4CCN(c5cc6c(cc5F)c(=O)c(C(=O)O)cn6C5CC5)CC4)CC3)c(F)cc2c1=O | 250 (≈ 228 µg/mL) | 62.5 (≈ 57.1 µg/mL) |  |  | 500 (≈ 457 µg/mL) | 62.5 (≈ 57.1 µg/mL) | 15.6 (≈ 14.2 µg/mL) | 1.9 (≈ 1.73 µg/mL) | 500 (≈ 457 µg/mL) | 62.5 (≈ 57.1 µg/mL) | inactive |  |  |  |  |  | 
CCCCC(=O)N1CCN(c2cc3c(cc2F)c(=O)c(C(=O)O)cn3C2CC2)CC1 | 250 (≈ 104 µg/mL) | 62.5 (≈ 26 µg/mL) | 0.48 (≈ 0.199 µg/mL) | 0.24 (≈ 0.0997 µg/mL) | 7.8 (≈ 3.24 µg/mL) | 7.8 (≈ 3.24 µg/mL) | ≤ 0.48 | ≤ 0.24 | 15.6 (≈ 6.48 µg/mL) | 7.8 (≈ 3.24 µg/mL) | inactive | 0.48 (≈ 0.199 µg/mL) | 0.48 (≈ 0.199 µg/mL) | 500 (≈ 208 µg/mL) | 62.5 (≈ 26 µg/mL) | 31.2 (≈ 13 µg/mL) | 31.2 (≈ 13 µg/mL)
O=C(CCCCCCCCCCCCCC(=O)OCN1CCN(c2cc3c(cc2F)c(=O)c(C(=O)O)cn3C2CC2)CC1)OCN1CCN(c2cc3c(cc2F)c(=O)c(C(=O)O)cn3C2CC2)CC1 | 250 (≈ 240 µg/mL) | 62.5 (≈ 59.9 µg/mL) | 0.97 (≈ 0.93 µg/mL) | 0.12 (≈ 0.115 µg/mL) | 15.6 (≈ 15 µg/mL) | 7.8 (≈ 7.48 µg/mL) | ≤ 0.48 | ≤ 0.12 | 62.5 (≈ 59.9 µg/mL) | 31.2 (≈ 29.9 µg/mL) | inactive | 1.9 (≈ 1.82 µg/mL) | 0.48 (≈ 0.46 µg/mL) | 500 (≈ 480 µg/mL) | 62.5 (≈ 59.9 µg/mL) | 62.5 (≈ 59.9 µg/mL) | 31.2 (≈ 29.9 µg/mL)
O=C(O)c1cn(C2CC2)c2cc(N3CCN(C(=O)CCl)CC3)c(F)cc2c1=O | 250 (≈ 102 µg/mL) | 31.2 (≈ 12.7 µg/mL) |  |  | 3.9 (≈ 1.59 µg/mL) | 3.9 (≈ 1.59 µg/mL) | ≤ 0.97 | ≤ 0.97 | ≤ 0.97 | ≤ 0.97 | inactive |  |  |  |  |  | 
CCCCCCCCOC(=O)N1CCN(c2cc3c(cc2F)c(=O)c(C(=O)O)cn3C2CC2)CC1 | 250 (≈ 122 µg/mL) | 125 (≈ 60.9 µg/mL) |  |  | 125 (≈ 60.9 µg/mL) | 125 (≈ 60.9 µg/mL) | 62.5 (≈ 30.5 µg/mL) | 7.8 (≈ 3.8 µg/mL) | 500 (≈ 244 µg/mL) | 125 (≈ 60.9 µg/mL) | inactive |  |  |  |  |  | 
CCCCNC(=O)c1cn2c3c(c(N4CCN(C)CC4)c(F)cc3c1=O)OC[C@@H]2C | 250 (≈ 104 µg/mL) | 62.5 (≈ 26 µg/mL) |  |  | 250 (≈ 104 µg/mL) | 125 (≈ 52.1 µg/mL) | 125 (≈ 52.1 µg/mL) | 125 (≈ 52.1 µg/mL) | 62.5 (≈ 26 µg/mL) | 62.5 (≈ 26 µg/mL) | inactive |  |  |  |  |  | 
